{
  "source": "patent US11147778B2",
  "about": "“Siderophore-polymer conjugates for increasing bacterial sensitivity to antibiotics” (Wisconsin Alumni Research Foundation, priority 2016, dated 2021)",
  "key": {"E. coli ATCC 25922": {"system": "E. coli ATCC 25922", "experiment": "Broth microdilution MIC / FICI", "format": "cell-based", "conditions": "Escherichia coli, ATCC25922, E. coli ATCC 25922", "procedure": "(§1) Antimicrobial efficacy was assessed by the broth microdilution assay in accordance with NCCLS guidelines (Coyle, Marie B. Manual of antimicrobial susceptibility testing. American Society for Microbiology, 2005). Organisms were grown overnight on non-selective MHA medium in order to obtain single colonies. Three to five morphologically distinct colonies were touched with a sterile pipet tip and transferred to a culture tube containing MHB (4 mL), and the broth culture was incubated at 37° C. until its turbidity matched a 0.5 McFarland Standard. The inoculum was then diluted 1:20 in sterile water, followed by a 1:10 dilution when inoculating wells of a 96-well plate. […] For combinations, the fractional inhibitory concentration index (FICI) was calculated using the following equation: [formula]"}, "P. aeruginosa ATCC 27853 [1]": {"system": "P. aeruginosa ATCC 27853", "experiment": "Broth microdilution MIC / FICI", "format": "cell-based", "conditions": "Pseudomonas aeruginosa, ATCC27853", "procedure": "as §1"}, "P. aeruginosa PAO1 [2]": {"system": "P. aeruginosa PAO1", "experiment": "Broth microdilution MIC / FICI", "format": "cell-based", "conditions": "Pseudomonas aeruginosa", "procedure": "as §1"}, "P. aeruginosa MDR 24530": {"system": "P. aeruginosa MDR 24530", "experiment": "Broth microdilution MIC / FICI", "format": "cell-based", "conditions": "Pseudomonas aeruginosa, MDR24530", "procedure": "as §1, with “[formula]” left out"}, "P. aeruginosa MDR 2638": {"system": "P. aeruginosa MDR 2638", "experiment": "Broth microdilution MIC / FICI", "format": "cell-based", "conditions": "Pseudomonas aeruginosa, MDR2638", "procedure": "as §1, with “[formula]” left out"}, "P. aeruginosa MDR 3072": {"system": "P. aeruginosa MDR 3072", "experiment": "Broth microdilution MIC / FICI", "format": "cell-based", "conditions": "Pseudomonas aeruginosa, MDR3072", "procedure": "as §1, with “[formula]” left out"}, "[3]": {"system": "P. aeruginosa reference strains (ATCC 27853 and PAO1)", "experiment": "Dose response of growth (OD600) to F127-(DFO-Ga)2/ERY", "format": "cell-based, Pseudomonas aeruginosa", "conditions": "50 μg/mL ERY alone"}, "[4]": {"system": "MDR strains (2638, 3072, and 24530) of P. aeruginosa", "experiment": "Growth inhibition by F127-(DFO-Ga)2/ERY, MDR strains", "format": "cell-based, Pseudomonas aeruginosa", "conditions": "244 μM F127-(DFO-Ga)2 and/or 50 μg/mL ERY", "procedure": "At time points of 0, 1, 2, and 4 hours, a small aliquot was removed from the broth culture, logarithmically diluted in M9 salts, and then spread onto cation-adjusted Mueller-Hinton agar plates. After overnight incubation at 37° C., colonies were counted and the number of CFU/mL was calculated."}, "P. aeruginosa ATCC 27853 [5]": {"system": "P. aeruginosa ATCC 27853", "experiment": "Disk diffusion, zones of inhibition", "format": "cell-based, Pseudomonas aeruginosa", "conditions": "27853; for zone of inhibition, A: same disks and plates", "procedure": "(§2) Single colonies were grown in MHB to match a 0.5 McFarland standard. A sterile cotton swab was dipped into the various MDR strain inoculums and spread evenly over the surface of the agar plates. Purchased antibiotic-containing disks at fixed concentrations (Table 4) were placed on the surface of each plate and incubated overnight at 37° C. Zones of inhibition were measured the following morning. Measurements included the diameter (d) of the antibiotic disk (6 mm) and are reported in terms of diameters and areas. […] Typically for diameters, R<10, I 11-15, and S>15 where R=resistance, I=intermediate resistance, and S=susceptible."}, "[6]": {"system": "P. aeruginosa MDR strain 24530", "experiment": "Disk diffusion, zones of inhibition", "format": "cell-based, Pseudomonas aeruginosa", "conditions": "24530", "procedure": "as §2"}, "[7]": {"system": "P. aeruginosa MDR strain 3072", "experiment": "Disk diffusion, zones of inhibition", "format": "cell-based, Pseudomonas aeruginosa", "conditions": "3072", "procedure": "as §2"}, "P. aeruginosa PAO1 [8]": {"system": "P. aeruginosa PAO1", "experiment": "Disk diffusion, zones of inhibition", "format": "cell-based, Pseudomonas aeruginosa", "conditions": "PAO1; for zone of inhibition, A: same disks and plates", "procedure": "as §2"}, "[9]": {"conditions": "antibiotic alone, Table 3, read-out: MIC"}, "[10]": {"conditions": "Pseudomonas aeruginosa, ATCC27853, disks NVB 30 μg, ERY 15 μg, RIF 5 μg, VAN 30 μg, MHA with or without 256 μM DG-F125, includes 6 mm disk, read-out: zone of inhibition, d"}, "[11]": {"conditions": "Pseudomonas aeruginosa, disks NVB 30 μg, ERY 15 μg, RIF 5 μg, VAN 30 μg, MHA with or without 256 μM DG-F125, includes 6 mm disk, read-out: zone of inhibition, d"}},
  "note": "Read-outs that look alike come from different tables or passages of the source.",
  "data": [
    {"compound": "CC[C@H]1OC(=O)[C@H](C)[C@@H](O[C@H]2C[C@@](C)(OC)[C@@H](O)[C@H](C)O2)[C@H](C)[C@@H](O[C@@H]2O[C@H](C)C[C@H](N(C)C)[C@H]2O)[C@](C)(O)C[C@@H](C)C(=O)[C@H](C)[C@@H](O)[C@]1(C)O", "note": "[ERY, erythromycin]", "values": [
      {"measurement": "MIC", "setting": "E. coli ATCC 25922; Example 9, read-out: MIC (Table 7, agent alone)", "result": 32, "unit": "µg/mL"},
      {"measurement": "MIC", "setting": "E. coli ATCC 25922; [9]", "result": 32, "unit": "µg/mL"},
      {"measurement": "MIC", "setting": "P. aeruginosa ATCC 27853 [1]", "result": 256, "unit": "µg/mL"},
      {"measurement": "MIC", "setting": "P. aeruginosa ATCC 27853 [1]; P. aeruginosa ATCC 27853, Example 9, read-out: MIC (Table 7, agent alone)", "result": "> 128", "unit": "µg/mL"},
      {"measurement": "MIC", "setting": "P. aeruginosa PAO1 [2]; PAO1", "result": 256, "unit": "µg/mL"},
      {"measurement": "MIC", "setting": "P. aeruginosa PAO1 [2]; P. aeruginosa PAO1, Example 9, read-out: MIC (Table 7, agent alone)", "result": "> 128", "unit": "µg/mL"},
      {"measurement": "MIC", "setting": "P. aeruginosa MDR 24530", "result": 512, "unit": "µg/mL"},
      {"measurement": "MIC", "setting": "P. aeruginosa MDR 2638", "result": 512, "unit": "µg/mL"},
      {"measurement": "MIC", "setting": "P. aeruginosa MDR 3072", "result": 512, "unit": "µg/mL"},
      {"measurement": "reduction in the OD600 compared to the positive control", "setting": "[3]", "result": "approximately 40%"},
      {"measurement": "bacterial growth", "setting": "[4]", "result": "similarly ineffective"},
      {"measurement": "zone of inhibition, A", "setting": "P. aeruginosa ATCC 27853 [5]", "result": 95, "unit": "mm^2"},
      {"measurement": "zone of inhibition at 15 µg/disc", "setting": "P. aeruginosa ATCC 27853 [5]; [10]", "result": 11, "unit": "mm"},
      {"measurement": "A of region where some growth is still visible (in parentheses)", "setting": "[6]; same disks and plates", "result": "(133) mm^2"},
      {"measurement": "d of region where some growth is still visible (in parentheses)", "setting": "[6]; same disks and plates", "result": "(13) mm"},
      {"measurement": "zone of inhibition, A", "setting": "[6]; same disks and plates", "result": 0, "unit": "mm^2"},
      {"measurement": "zone of inhibition at 15 µg/disc", "setting": "[6]; [11]", "result": 0, "unit": "mm"},
      {"measurement": "A of region where some growth is still visible (in parentheses)", "setting": "[7]; same disks and plates", "result": "(283) mm^2"},
      {"measurement": "d of region where some growth is still visible (in parentheses)", "setting": "[7]; same disks and plates", "result": "(19) mm"},
      {"measurement": "zone of inhibition, A", "setting": "[7]; same disks and plates", "result": 0, "unit": "mm^2"},
      {"measurement": "zone of inhibition at 15 µg/disc", "setting": "[7]; [11]", "result": 0, "unit": "mm"},
      {"measurement": "zone of inhibition, A", "setting": "P. aeruginosa PAO1 [8]", "result": 64, "unit": "mm^2"},
      {"measurement": "zone of inhibition at 15 µg/disc", "setting": "P. aeruginosa PAO1 [8]; [11]", "result": 9, "unit": "mm"}
    ]},
    {"compound": "CO[C@H]1/C=C/O[C@@]2(C)Oc3c(C)c(O)c4c(O)c(c(/C=N/N5CCN(C)CC5)c(O)c4c3C2=O)NC(=O)/C(C)=C\\C=C\\[C@H](C)[C@H](O)[C@@H](C)[C@@H](O)[C@@H](C)[C@H](OC(C)=O)[C@@H]1C", "note": "[RIF, rifampicin]", "values": [
      {"measurement": "MIC", "setting": "E. coli ATCC 25922; [9]", "result": 4, "unit": "µg/mL"},
      {"measurement": "MIC", "setting": "P. aeruginosa ATCC 27853 [1]; ATCC 27853, antibiotic alone, Table 3, read-out: MIC", "result": 16, "unit": "µg/mL"},
      {"measurement": "MIC", "setting": "P. aeruginosa PAO1 [2]; PAO1, antibiotic alone, Table 3, read-out: MIC", "result": 16, "unit": "µg/mL"},
      {"measurement": "MIC", "setting": "P. aeruginosa MDR 24530; MDR 24530, antibiotic alone, read-out: MIC", "result": 16, "unit": "µg/mL"},
      {"measurement": "MIC", "setting": "P. aeruginosa MDR 2638; MDR 2638, antibiotic alone, read-out: MIC", "result": 8, "unit": "µg/mL"},
      {"measurement": "MIC", "setting": "P. aeruginosa MDR 3072; MDR 3072, antibiotic alone, read-out: MIC", "result": 16, "unit": "µg/mL"},
      {"measurement": "zone of inhibition, A", "setting": "P. aeruginosa ATCC 27853 [5]", "result": 0, "unit": "mm^2"},
      {"measurement": "zone of inhibition at 5 µg/disc", "setting": "P. aeruginosa ATCC 27853 [5]; [10]", "result": 0, "unit": "mm"},
      {"measurement": "zone of inhibition, A", "setting": "[6]; same disks and plates", "result": 0, "unit": "mm^2"},
      {"measurement": "zone of inhibition at 5 µg/disc", "setting": "[6]; [11]", "result": 0, "unit": "mm"},
      {"measurement": "zone of inhibition, A", "setting": "[7]; same disks and plates", "result": 0, "unit": "mm^2"},
      {"measurement": "zone of inhibition at 5 µg/disc", "setting": "[7]; [11]", "result": 0, "unit": "mm"},
      {"measurement": "zone of inhibition, A", "setting": "P. aeruginosa PAO1 [8]", "result": 33, "unit": "mm^2"},
      {"measurement": "zone of inhibition at 5 µg/disc", "setting": "P. aeruginosa PAO1 [8]; [11]", "result": 6.5, "unit": "mm"}
    ]}
  ]
}
